Data: US20020039601A1, “Cancer cell growth suppressor and cell differentiation inducer and method for manufacturing the same” (priority 2000, published 2002)

How the values were obtained:
[1] = system: carcinoma strain of the colon (Colo201 cells); assay: CD-DST cancer cell growth suppression test, Colo201; assay type: cell-based, human; conditions: 67.6 μg of capsanthin (FIG. 6)
Source text: Employing a drug sensitivity test method (CD-DST method), Toma-pi water-soluble component condensed liquid of different concentrations was examined for growth suppressing effect at the contact time set at seven days.
The CD-DST method herein referred to is a well-known experiment method called a collagen gel drop method, and its steps are shown in FIG. 1. Its details are also described in “Establishment of Collagen Gel Droplet Embedded Culture Drug Sensitivity Test (CD-DST) and consideration about its clinical utility” in “Cancer and Chemical Treatment” (published in 1995, vol.22, 1933-1939 pages).
As a method of cultivating cancer cells, a human cancer cell first generation cultivation system kit (Plymaster made by Nitta Gelatine Co.), was used and cells were cultivated according to a normal method (reference document J. Jpn. Soc. Cancer Ther. 29(7):946-956, 1994).
The growth suppressing effect was judged in terms of suppressing percentage (T/C%) which is the ratio of a treated group to an untreated group (control group). Units μg and mg shown in FIGS. 2-7 show the concentrations of Toma-pi water-soluble components in terms of the weight of Toma-pi powder (dried powder of Capsicum Annuum L.Var.grossumn) used as raw material for water extracting. It is hereinbelow referred to as “converted concentration of Toma-pi water-soluble components”.

[2] = system: HL-60 cells; assay: Human leukemia differentiation inducing test (NBT reducing ability); assay type: cell-based; conditions: HL60 cells
Procedure: The differentiation inducing test using HL-60 cells, which are leukemia cells, was performed according to “New Cultured Cell Experiment Method” (written by Toshio Kuroki, on pages 286-289, published by Yodosha), “Jpn. J-Cancer” (Res. 81, 807-812, August 1990), and “Clinical Test Method” written by Izumi Kamei, page 358, published by Kinbara Shuppan) to examine the differentiation inducing ability with the NBT reducing ability as an index.
It is known that for HL60 cells, differentiation is induced by retinoic acid, DMSO or active type vitamin D3. Active type vitamin D3 (medicine for external use, treatment of psoriasis) and all-trans retinoic acid (ATRA) are used as oral medicine for treating leukemia. When leukemia cells differentiate, azurophile granules in the cells reduce. If they differentiate into granulocyte, cell nucleus segment. […] As a convenient marker for differentiation induction of leukemia cells, one method is to measure nitro blune tetrazolium (NBT) reducing ability.
The NBT test uses the fact that when promyelocytic leukemia cells such as HL60 differentiate into monocyte/macrophage, production of active oxygen increases. That is to say, formation of insoluble formozan produced when NBT is reduced due to oxidation/reduction reaction by the active oxygen is used as a marker of differentiation. Active vitamin D3 has a differentiating ability at 10^−9 to 10^−6 M, ATRA at 10^−8 to 10^−6 M, and DMSO at 1.2 to 1.3%. At the respective maximum concentrations, they can differentiate by about 90% or over. Judging by the NBT reducing ability, the results were examined.

[3] = system: HL-60 cells; conditions: HL60 cells, cited from earlier work

CC1=C(/C=C/C(C)=C/C=C/C(C)=C/C=C/C=C(C)/C=C/C=C(C)/C=C/C(=O)[C@]2(C)C[C@@H](O)CC2(C)C)C(C)(C)C[C@H](O)C1 [capsanthin]
growth suppression [1]: 24%
active type vitamin D3 concentration from which differentiation was promoted in combination ([2]; capsanthin 200 μg with active type vitamin D3 (FIG. 9)): ≥ 75 pM
active type vitamin D3 concentration at which differentiation was promoted in combination ([2]; capsanthin 400 μg with active type vitamin D3 (FIG. 9)): 10^−11 M

C[S+](C)[O-] [DMSO]
concentration having differentiating ability [3]: 1.2 to 1.3%

active type vitamin D3
NBT reducing rate ([2]; 10^−9 M): about 5%
differentiating ability ([3]; 10^−10 M, alone): does not ordinarily show any differentiating ability
concentration having differentiating ability [3]: 10^−9 to 10^−6 M

CC1=C(/C=C/C(C)=C/C=C/C(C)=C/C(=O)O)C(C)(C)CCC1 [ATRA, all-trans retinoic acid]
concentration having differentiating ability [3]: 10^−8 to 10^−6 M
